Assay results as given in US9200067B2, “Molecular marker CUEDC2 protein for prognostic determination of breast cancer endocrinology therapy” (Biomedical Analysis Center of Academy of Military Medical …, priority 2011, dated 2015).
“Also recorded” adds a separate entry of the source.

How the values were obtained:
[1] = tested on: MCF-7/vector or MCF-7/CUEDC2 cells; experiment: Tumor formation in ovariectomized nude mice (mammary fat pad xenograft); type: in vivo; conditions: tamoxifen sustained-release tablets subcutaneously, vs placebo
Experimental: 4-week-old female nude mice were purchased from Animal Laboratory Center of the Academy of Military Medical Sciences; the Cell Titer Glo Luminescent Cell Viability Assay was purchased from Promega Company; the Estrogen and tamoxifen sustained-release tablets were purchased from Innovative Research of America.
(§1) MCF-7 cells stably transfected with CUEDC2 were treated with different doses of tamoxifen, and then the cell growth was observed by a cell counting method. […] In order to eliminate nonspecific effects of over expression of CUEDC2 on cells growth, the inventors knocked down the CUEDC2 expression in the cells and did the same cell growth experiment. […] In order to verify the above conclusion, the inventors further conducted animal experiments. 5×10^6 MCF-7/vector or MCF-7/CUEDC2 cells were injected into the mammary fat pad of ovariectomized nude mice, and estrogen sustained-release tablets were embedded subcutaneously. When tumors grew to 100-150 mm^3, nude mice were divided into two groups randomly, and embedded with tamoxifen or control placebo pills subcutaneously.

MCF-7 cells = experiment: Crystal violet colony-formation assay; type: cell-based
[2] = tested on: MCF-7 cells stably transfected with CUEDC2; experiment: Cell growth by cell counting under different doses of tamoxifen; type: cell-based
Experimental: as §1

Compound: CC/C(=C(\c1ccccc1)c1ccc(OCCN(C)C)cc1)c1ccccc1 [tamoxifen]
- tumor growth ([1]; MCF-7/CUEDC2 cells in nude mice): could not effectively inhibit; also recorded: cannot inhibit tumor growth effectively
- tumor growth ([1]; MCF-7/vector cells in nude mice): significantly inhibit
- sensitivity to tamoxifen-induced cell death (MCF-7 cells; cells over expressing CUEDC2): insensitive
- sensitivity to tamoxifen-induced cell death (MCF-7 cells; control MCF-7 empty vector cells): sensitive
- sensitivity of cell growth to tamoxifen ([2]; MCF-7 cells over expressing CUEDC2, different doses of tamoxifen): insensitive
- sensitivity of cells to tamoxifen after CUEDC2 knockdown ([2]; MCF-7 cells over expressing CUEDC2 knocked down by CUEDC2 siRNA): restored the sensitivity
